Test results published in PubChem BioAssay AID1259407 (Chemical Carcinogenesis Research Information System (CCRIS), 2018).
The source made the active and inactive calls. The rule behind the calls is not given here.

Test system: CCRIS mutagenicity, Ames/micronucleus/aberration tests
Assay: CCRIS mutagenicity studies
[1] = Test System: AMES SALMONELLA TYPHIMURIUM, Strain/Indicator: TA100, Metabolic Activation: NONE, Method: STANDARD PLATE

Nc1ccccc1N
mutagenic call (End Point: IN VITRO CHROMOSOMAL ABERRATIONS, Test System: CHINESE HAMSTER LUNG CELLS (CHL), Metabolic Activation: NONE): active; positive (structural changes)
mutagenic call (End Point: IN VITRO CHROMOSOMAL ABERRATIONS, Test System: CHINESE HAMSTER LUNG CELLS (CHL), Metabolic Activation: RAT, LIVER, S-9, KC-400): inactive; negative
mutagenic call (End Point: IN VITRO CHROMOSOMAL ABERRATIONS, Test System: CHINESE HAMSTER OVARY CELLS (CHO), Metabolic Activation: NONE): active; positive (structural changes)
mutagenic call (End Point: IN VITRO CHROMOSOMAL ABERRATIONS, Test System: CHINESE HAMSTER OVARY CELLS (CHO), Metabolic Activation: RAT, LIVER, S-9, AROCLOR 1254): active; positive (structural changes)
mutagenic call (End Point: IN VITRO CHROMOSOMAL ABERRATIONS, Test System: CHL CELLS, Metabolic Activation: NONE): active; positive (structural changes)
mutagenic call (End Point: IN VITRO CHROMOSOMAL ABERRATIONS, Test System: CHL CELLS, Metabolic Activation: RAT, LIVER, S-9, SODIUM PHENOBARBITAL AND 5,6-BENZOFLAVONE): active; positive (structural changes)
mutagenic call (Test System: AMES SALMONELLA TYPHIMURIUM, Strain/Indicator: TA97, Metabolic Activation: HAMSTER, LIVER, S-9, AROCLOR 1254 (10%), Method: PREINCUBATION): active; positive
mutagenic call (Test System: AMES SALMONELLA TYPHIMURIUM, Strain/Indicator: TA97, Metabolic Activation: NONE, Method: PREINCUBATION): inactive; negative
mutagenic call (Test System: AMES SALMONELLA TYPHIMURIUM, Strain/Indicator: TA97, Metabolic Activation: RAT, LIVER, S-9, AROCLOR 1254 (10%), Method: PREINCUBATION): active; positive
mutagenic call (Test System: AMES SALMONELLA TYPHIMURIUM, Strain/Indicator: TA98(NR), Metabolic Activation: NONE, Method: PREINCUBATION): inactive; negative
mutagenic call (Test System: AMES SALMONELLA TYPHIMURIUM, Strain/Indicator: TA98(NR), Metabolic Activation: RAT, LIVER, S-9, AROCLOR 1254, Method: PREINCUBATION): active; positive
mutagenic call (Test System: AMES SALMONELLA TYPHIMURIUM, Strain/Indicator: TA98, Metabolic Activation: HAMSTER, LIVER, S-9, AROCLOR 1254 (10%), Method: PREINCUBATION): active; positive
mutagenic call (Test System: AMES SALMONELLA TYPHIMURIUM, Strain/Indicator: TA98, Metabolic Activation: NONE, Method: STANDARD PLATE): inactive; negative
mutagenic call (Test System: AMES SALMONELLA TYPHIMURIUM, Strain/Indicator: TA98, Metabolic Activation: PEA APICAL BUD S-9, Method: PREINCUBATION): active; positive
mutagenic call (Test System: AMES SALMONELLA TYPHIMURIUM, Strain/Indicator: TA98, Metabolic Activation: PEA APICAL BUD S-9, Method: STANDARD PLATE): active; positive
mutagenic call (Test System: AMES SALMONELLA TYPHIMURIUM, Strain/Indicator: TA98, Metabolic Activation: PLANT (PERSEA AMERICANA) S-117, Method: STANDARD PLATE): inactive; negative
mutagenic call (Test System: AMES SALMONELLA TYPHIMURIUM, Strain/Indicator: TA98, Metabolic Activation: PLANT (ZEA MAYS) S-9, Method: STANDARD PLATE): inactive; negative
mutagenic call (Test System: AMES SALMONELLA TYPHIMURIUM, Strain/Indicator: TA98, Metabolic Activation: RAT LIVER S-9, PHENOBARBITAL AND BETA-NAPHTHOFLAVONE, Method: PREINCUBATION): active; positive
mutagenic call (Test System: AMES SALMONELLA TYPHIMURIUM, Strain/Indicator: TA98, Metabolic Activation: RAT, LIVER, S-9, AROCLOR 1254 (10%), Method: PREINCUBATION): active; positive
mutagenic call (Test System: AMES SALMONELLA TYPHIMURIUM, Strain/Indicator: TA98, Metabolic Activation: RAT, LIVER, S-9, AROCLOR 1254, Method: PREINCUBATION): active; positive
mutagenic call (Test System: AMES SALMONELLA TYPHIMURIUM, Strain/Indicator: TA98, Metabolic Activation: RAT, LIVER, S-9, AROCLOR 1254, Method: STANDARD PLATE): active; positive
mutagenic call (Test System: AMES SALMONELLA TYPHIMURIUM, Strain/Indicator: TA98, Metabolic Activation: RAT, LIVER, S-9, PCB, Method: PREINCUBATION): active; positive
mutagenic call (Test System: AMES SALMONELLA TYPHIMURIUM, Strain/Indicator: TA100(NR), Metabolic Activation: NONE, Method: PREINCUBATION): inactive; negative
mutagenic call (Test System: AMES SALMONELLA TYPHIMURIUM, Strain/Indicator: TA100(NR), Metabolic Activation: RAT, LIVER, S-9, AROCLOR 1254, Method: PREINCUBATION): active; positive
mutagenic call (Test System: AMES SALMONELLA TYPHIMURIUM, Strain/Indicator: TA100, Metabolic Activation: HAMSTER, LIVER, S-9, AROCLOR 1254 (10%), Method: PREINCUBATION): active; positive
mutagenic call [1]: inactive; negative
mutagenic call (Test System: AMES SALMONELLA TYPHIMURIUM, Strain/Indicator: TA100, Metabolic Activation: PEA APICAL BUD S-9, Method: PREINCUBATION): active; positive
mutagenic call (Test System: AMES SALMONELLA TYPHIMURIUM, Strain/Indicator: TA100, Metabolic Activation: PEA APICAL BUD S-9, Method: STANDARD PLATE): active; positive
mutagenic call (Test System: AMES SALMONELLA TYPHIMURIUM, Strain/Indicator: TA100, Metabolic Activation: PLANT (PERSEA AMERICANA) S-117, Method: STANDARD PLATE): inactive; negative
mutagenic call (Test System: AMES SALMONELLA TYPHIMURIUM, Strain/Indicator: TA100, Metabolic Activation: PLANT (ZEA MAYS) S-9, Method: STANDARD PLATE): inactive; negative
mutagenic call (Test System: AMES SALMONELLA TYPHIMURIUM, Strain/Indicator: TA100, Metabolic Activation: RAT LIVER S-9, PHENOBARBITAL AND BETA-NAPHTHOFLAVONE, Method: PREINCUBATION): active; positive
mutagenic call (Test System: AMES SALMONELLA TYPHIMURIUM, Strain/Indicator: TA100, Metabolic Activation: RAT, LIVER, S-9, AROCLOR 1254 (10%), Method: PREINCUBATION): active; positive
mutagenic call (Test System: AMES SALMONELLA TYPHIMURIUM, Strain/Indicator: TA100, Metabolic Activation: RAT, LIVER, S-9, PCB, Method: PREINCUBATION): active; positive
mutagenic call (Test System: AMES SALMONELLA TYPHIMURIUM, Strain/Indicator: TA1535, Metabolic Activation: HAMSTER, LIVER, S-9, AROCLOR 1254 (10%), Method: PREINCUBATION): inactive; negative
mutagenic call (Test System: AMES SALMONELLA TYPHIMURIUM, Strain/Indicator: TA1535, Metabolic Activation: NONE, Method: PREINCUBATION): inactive; negative
mutagenic call (Test System: AMES SALMONELLA TYPHIMURIUM, Strain/Indicator: TA1535, Metabolic Activation: RAT LIVER S-9, PHENOBARBITAL AND BETA-NAPHTHOFLAVONE, Method: PREINCUBATION): inactive; negative
mutagenic call (Test System: AMES SALMONELLA TYPHIMURIUM, Strain/Indicator: TA1535, Metabolic Activation: RAT, LIVER, S-9, AROCLOR 1254 (10%), Method: PREINCUBATION): inactive; negative
mutagenic call (Test System: AMES SALMONELLA TYPHIMURIUM, Strain/Indicator: TA1537, Metabolic Activation: NONE, Method: PREINCUBATION): inactive; negative
mutagenic call (Test System: AMES SALMONELLA TYPHIMURIUM, Strain/Indicator: TA1537, Metabolic Activation: RAT LIVER S-9, PHENOBARBITAL AND BETA-NAPHTHOFLAVONE, Method: PREINCUBATION): active; positive
mutagenic call (Test System: AMES SALMONELLA TYPHIMURIUM, Strain/Indicator: TA1538, Metabolic Activation: RAT, LIVER, S-9, AROCLOR 1254, Method: STANDARD PLATE): active; positive
mutagenic call (Test System: AMES SALMONELLA TYPHIMURIUM, Strain/Indicator: TA1538, Metabolic Activation: RAT, LIVER, S-9, PHENOBARBITAL, Method: STANDARD PLATE): active; positive
mutagenic call (Test System: AMES SALMONELLA TYPHIMURIUM, Strain/Indicator: YG1024, Metabolic Activation: PLANT (PERSEA AMERICANA) S-117, Method: STANDARD PLATE): inactive; negative
mutagenic call (Test System: AMES SALMONELLA TYPHIMURIUM, Strain/Indicator: YG1024, Metabolic Activation: PLANT (ZEA MAYS) S-9, Method: STANDARD PLATE): inactive; negative
mutagenic call (Test System: AMES SALMONELLA TYPHIMURIUM, Strain/Indicator: YG1029, Metabolic Activation: PLANT (PERSEA AMERICANA) S-117, Method: STANDARD PLATE): inactive; negative
mutagenic call (Test System: AMES SALMONELLA TYPHIMURIUM, Strain/Indicator: YG1029, Metabolic Activation: PLANT (ZEA MAYS) S-9, Method: STANDARD PLATE): inactive; negative
mutagenic call (Test System: E.COLI, Strain/Indicator: WP2UVRA, Metabolic Activation: NONE, Method: PREINCUBATION): inactive; negative

c1ccc2c(COCC3CO3)cccc2c1 (configuration not stated)
mutagenic call [1]: active; positive
mutagenic call (Test System: AMES SALMONELLA TYPHIMURIUM, Strain/Indicator: TA1535, Metabolic Activation: NONE, Method: STANDARD PLATE): active; positive

COc1cc(O)c2c(c1)C(=O)c1c(O)c(C)cc(O)c1C2=O
mutagenic call (Test System: AMES SALMONELLA TYPHIMURIUM, Strain/Indicator: TA1537, Metabolic Activation: NONE, Method: STANDARD PLATE): inactive; negative
mutagenic call (Test System: AMES SALMONELLA TYPHIMURIUM, Strain/Indicator: TA1537, Metabolic Activation: S-9, Method: STANDARD PLATE): active; positive

CCCCCCCCCCCC[N+](C)(C)COCCCCCCCC
mutagenic call (Test System: BACILLUS SUBTILIS, Strain/Indicator: H17/REC, Metabolic Activation: NONE, Method: STANDARD PLATE): inactive; negative
mutagenic call (Test System: BACILLUS SUBTILIS, Strain/Indicator: M45, Metabolic Activation: NONE, Method: STANDARD PLATE): inactive; negative
